Data set [1] concerns bile duct-ligated (BDL) rats. Put plainly: Anti-fibrotic effect on bile duct-ligated liver fibrosis model. The data set is classed as in vivo. Conditions: for Body weight / Organ weight Liver / Organ weight Liver/Body / Organ weight Spleen / Organ weight Spleen/Body: mean ± S.E.
Data set [2] has as its system BALB/c 4T1 xenografted mice. Put plainly: Anti-metastatic effect on BALB/c 4T1 xenografted mice model. The data set is classed as in vivo. The note with it: Example 3 13.6 or 27.3 mg/kg orally BID, four weeks; Example 2 5, 10, 20, or 40 mg/kg orally; Example 61 43.6 mg/kg intraperitoneally every other day, 2.5 weeks. As to the method: Female BALB/c mice were purchased from Orient Bio Inc. (Seoul, Korea). Animals were maintained in a temperature-controlled room (22° C.) and supplied with food and water ad libitum. 4T1 cells (1.2×10^4 cells) were suspended in PBS and implanted into the left #4 mammary fat pad of five to six-week-old female BALB/c mice (day 0). In Experiment 1, treatment was started after tumor implantation (day 0). […] In Experiment 2, treatment was started on day 4. […] In Experiment 3, treatment was started on day 4. […] In Experiment 4, 4T1 cells (1×10^4 cells) were suspended in PBS and implanted into the left #4 mammary fat pad of ten-week-old female BALB/c mice (day 0). Treatment was started on day 10. Example 61 (43.6 mg/kg) dissolved in saline was given to mice intraperitoneally every other day for 2.5 weeks. In all Experiments, mice were sacrificed at 24 to 72 h after the last dosing, and 15% India ink solution (Hardy Diagnostics) in PBS was immediately injected into the trachea. […] Number of metastatic nodule was counted on the surface of left lobe of lung, and picture of lung was taken with digital camera. The tumor size was measured using calipers, and the tumor volume was calculated by using the following equation: Tumor volume=(0.5236)×(width)^2×(length)
Either vehicle buffer (4 mM HCl, 1 mg/mL BSA) or TGF-β1 (50 ng/mouse) in vehicle buffer was given to mice intravenously at 2 h before mice were sacrificed. Tumor tissues from mice were lysed in RIPA buffer [50 mM Tris, pH 7.5, 150 mM NaCl, 0.1% sodium dodecyl sulfate, 0.5% sodium deoxycholate, 1% NP-40, 1 mM NaF, 1 mM Na3VO4, 1 mM PMSF, a protease inhibitor cocktail (1 tablet of Roche Diagnostics GmbH protease inhibitor cocktail/10 mL) (Roche)] for 20 min on ice. Lysates were cleared by centrifugation at 13000 rpm at 4° C. for 20 min. Protein content of supernatants was determined using Micro-BCA (bicinchoninic acid) protein assay kit (Thermo Scientific). Lysates containing 20-50 μg total protein were separated by electrophoresis on polyacrylamide gel and then electrophoretically transferred to polyvinylidene difluoride transfer membranes (Millipore, Billerica, Mass., USA). Membranes were blocked with 5% BSA (Sigma-Aldrich) in PBS containing 0.5% Tween-20 (PBST) for 1 h and incubated overnight at 4° C. with one of following antibodies: anti-phospho-Smad2 (Millipore), anti-Smad2/3 (BD Transduction Laboratories, NJ, USA), or anti-β-actin (Sigma-Aldrich) in PBST containing 1% BSA. […] Bound antibodies were detected using Western Blotting Luminol Reagent (SantaCruz Biotechnology). Band intensities were analyzed using a densitometer LAS-3000 imager (FUJIFILM, Tokyo, Japan).

For another data set, the system named is MMTV/c-Neu mice. Put plainly: Anti-metastatic effect on MMTV/c-Neu mice breast cancer model. The data set is classed as in vivo. Conditions: for β-casein mRNA expression level in the lung: 43.6 mg/kg intraperitoneally every other day, Example 61 three weeks, Example 3 ten weeks. As to the method:
Anti-metastatic Effect on MMTV/c-Neu mice breast cancer model MMTV/c-Neu female transgenic mice were purchased from Jackson Laboratory (Bar Harbor, Me., USA). Animals were maintained in a temperature-controlled SPF room (22° C.) and supplied with food and water ad libitum. In Experiment 1, Example 61 (43.6 mg/kg) dissolved in saline was given to thirty two-week-old MMTV/c-Neu mice intraperitoneally every other day for three weeks. […] Mice were sacrificed at 24 h after the last dosing, and tissues of mammary tumor and lung were analyzed by hematoxylin and eosin (H&E) staining To analyse β-casein mRNA level in tissues of mammary tumor and lung, total RNAs were isolated from these tissues using TRIzol reagent (Invitrogen Corporation) and RNeasy Mini kit (Qiagen) according to the manufacturer's instruction. The cDNAs were synthesized from 2 μg of total RNAs using random primer (Invitrogen Corporation) by MMLV RTase (Invitrogen Corporation) for 1 h at 37° C. and subjected to PCR amplification using Taq polymerase (Promega) and following gene-specific primers: mouse GAPDH (forward) 5′-[…]-3′ and (reverse) 5′-[…]-3′, mouse β-casein (forward) 5′-[…]-3′ and (reverse) 5′-[…]-3′. Amplified DNA was analyzed by agarose gel electrophoresis.
Activity of MMP-9 and MMP-2 in the primary mammary tumor was measured by gelatin zymography. Tumor tissues from mice (30 mg) was lysed in 500 μL RIPA buffer (50 mM Tris, 150 mM NaCl, 0.1% sodium dodecyl sulfate, 0.5% sodium deoxycholate, 1% NP-40, protease inhibitor without EDTA) for 10-20 min on ice. Lysates were cleared by centrifugation at 13000 rpm at 4° C. for 10 min. Protein content of supernatants was determined using Micro-BCA protein assay kit (Thermo Scientific). Loading samples were prepared by adding loading buffer (0.5 M Tris, pH 6.8, 50% glycerol, 10% SDS, and 1% bromophenol blue solution) into lysates containing 15 μg of total protein. Loading samples were heated at 60° C. for 5 min and separated by electrophoresis on 10% polyacrylamide gel containing 0.2% gelatin. Gel was washed twice with washing buffer [2.5% Triton-X100, 0.05 M Tris-HCl, pH 7.5, and 0.1 M NaCl] for 30 min at room temperature. […] Gel image was obtained using a densitometer LAS-3000 imager (FUJIFILM) in cybergreen mode.

The next data set has as its target ALK5 (Homo sapiens (Human), UniProt P36897). Put plainly: Cell-free assay for inhibition of ALK5 kinase phosphorylation. The data set is classed as biochemical. Conditions: read-out: IC50 on ALK5 kinase phosphorylation.
[3] abbreviates: BDL rats, 21.8 mg/kg orally three times per week for four weeks.
Where [4] appears, read: BDL rats, 43.6 mg/kg orally three times per week for four weeks.
Setting [5] is: Sham-operated rats, 43.6 mg/kg orally three times per week for four weeks.
Where [6] appears, read: orally three times per week for four weeks, Example 2 5, 10, 20 mg/kg, Example 3 21.8, 43.6 mg/kg.
[7] abbreviates: orally three times per week for four weeks, Western blot.
Where [8] appears, read: 43.6 mg/kg intraperitoneally every other day for ten weeks, gelatin zymography.

Marks after values point to notes of the source that are not given here.

Consider 14 compounds from USRE47141E1, “Methods of treating fibrosis, cancer and vascular injuries” (EWHA University—Industry Collaboration Foundation, priority 2010, dated 2018).

ALK5, sequence (P36897 34-503): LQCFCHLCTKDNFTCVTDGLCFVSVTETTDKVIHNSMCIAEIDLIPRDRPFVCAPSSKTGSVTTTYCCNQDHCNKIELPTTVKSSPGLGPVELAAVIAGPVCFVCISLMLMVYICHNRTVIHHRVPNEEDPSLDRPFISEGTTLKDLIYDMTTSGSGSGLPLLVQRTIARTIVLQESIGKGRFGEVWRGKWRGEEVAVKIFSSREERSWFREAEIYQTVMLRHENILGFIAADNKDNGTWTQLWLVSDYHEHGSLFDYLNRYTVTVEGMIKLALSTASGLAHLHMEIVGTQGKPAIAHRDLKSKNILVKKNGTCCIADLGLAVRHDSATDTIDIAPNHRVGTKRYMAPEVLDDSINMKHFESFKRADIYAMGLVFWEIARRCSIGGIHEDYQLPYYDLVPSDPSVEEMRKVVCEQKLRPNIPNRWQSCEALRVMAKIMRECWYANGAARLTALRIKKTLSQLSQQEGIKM
Description for ALK5: ALK5 protein was expressed in Sf9 insect cells as human recombinant GST-fusion protein using the baculovirus expression system. Expressed protein was purified by affinity chromatography using GSH-agarose (Sigma-Aldrich). Kinase assay was performed in 96-well FlashPlates™ from Perkin Elmer (Boston, Mass., USA) in a 50 μL reaction volume. The reaction cocktail was pipetted in four steps in the following order: 20 μL of assay buffer (standard buffer), 5 μL of ATP solution in H2O, 5 μL of each test compounds of formula (I) in 10% DMSO, 10 μL of GSK3 (14-27) (200 ng)/10 μL of ALK5 solution (1 ng) (premixed). The reaction cocktail contained 60 mM HEPES-NaOH, pH 7.5, 3 mM MgCl2, 3 mM MnCl2, 3 Na3VO4, 1.2 mM DTT, 50 μg/mL PEG20000, 1 μM [γ-^33P]-ATP (approximately 2.5×10^5 cpm per well), 200 ng/10 μL GSK3 (14-27), and 1 ng/10 μL ALK5. The reaction cocktail was incubated at 30° C. for 60 min. The reaction was stopped with 50 μL of 2% (v/v) H3PO4, and plates were aspirated and washed two times with 200 μL 0.9% (w/v) NaCl. Assay was performed with a BeckmanCoulter Biomek 2000 robotic system. Incorporation of ^33Pi (counting of “cpm”) was determined with a microplate scintillation counter (Microbeta, Wallac).

Consider `Cc1cccc(-c2[nH]c(CNc3ccccc3F)nc2-c2ccc3ncnn3c2)n1.Cl` [Example 3], for which, in data set [1] (21.8 or 43.6 mg/kg orally three times per week for four weeks, Western blot), the “Smad signaling in BDL rat liver (pSmad3)” value is “inhibited”. For the same compound, in data set [1] (setting [3]), the Body weight is reported as 340 ± 0.6 g, the “Organ weight Liver” value is recorded as 16.4 ± 0.72**^,## g, the “Organ weight Liver/Body” value is given as 4.85 ± 0.26**^,## % and the “Organ weight Spleen” value is listed as 1.30 ± 0.07 g. The “Organ weight Spleen/Body” value in data set [1] (setting [3]) was 0.39 ± 0.03**^,## %. Moreover, in data set [1] (setting [4]), the Body weight stood at 335 ± 8.4 g, the “Organ weight Liver” value is 16.1 ± 0.57**^,## g, the “Organ weight Liver/Body” value is reported as 4.84 ± 0.26**^,## % and the “Organ weight Spleen” value is given as 1.19 ± 0.09 g. Moreover, the “Organ weight Spleen/Body” value in data set [1] (setting [4]) is listed as 0.36 ± 0.03**^,## %. Moreover, in data set [1] (setting [5]), the Body weight amounted to 354 ± 12.2 g, the “Organ weight Liver” value is given as 11.8 ± 0.71 g, the “Organ weight Liver/Body” value worked out at 3.34 ± 0.12% and the “Organ weight Spleen” value was 0.81 ± 0.04 g. Besides, the “Organ weight Spleen/Body” value in data set [1] (setting [5]) was 0.23 ± 0.01%. Besides, the BDL-induced histological change entry in data set [1] (liver, H&E staining) is recorded as “greatly abolished”. Moreover, in data set [1] (setting [6]), the “body weight loss in BDL rats” value is “recovered”; the “organ (liver and spleen) weight in BDL rats” value is listed as “decreased”; the “serum ALT in BDL rats” value is “improved”; the “serum AST in BDL rats” value is “improved”. Moreover, in data set [1] (setting [7]), the “fibronectin in BDL rat liver” value is listed as “suppressed”, the “vimentin in BDL rat liver” value is “suppressed” and the “α-SMA in BDL rat liver” value is reported as “suppressed”. In addition, the “number of metastastic nodules on the lung” value in data set [2] was “significantly reduced”. Besides, in the data set on MMTV/c-Neu mice (setting [8]), the “activity of MMP-2 in the primary mammary tumor” value is listed as “significantly inhibited” and the “activity of MMP-9 in the primary mammary tumor” value is listed as “significantly inhibited”. Further, the “β-casein mRNA expression level in the lung” value in the data set on MMTV/c-Neu mice is given as “significantly inhibited”.
Turning to `Cc1cccc(-c2[nH]c(CNc3cccc(C#N)c3)nc2-c2ccc3ncnn3c2)n1.Cl` [Example 61], the “number of metastastic nodules on the lung” value in data set [2] is recorded as “significantly reduced”. For the same compound, the “number of metastastic lesions in the lung” value in the data set with MMTV/c-Neu mice (43.6 mg/kg intraperitoneally every other day for three weeks) is listed as “significantly reduced”. Further, the “β-casein mRNA expression level in the lung” value with MMTV/c-Neu mice is on record as “significantly inhibited”.
`Cc1cccc(-c2[nH]c(CN(C)c3ccccc3F)nc2-c2ccc3ncnn3c2)n1` [Example 140, N-((4-([1,2,4]triazolo[1,5-a]pyridin-6-yl)-5-(6-methylpyridin-2-yl)-1H-imidazol-2-yl)methyl)-2-fluoro-N-methylaniline]: the half-maximal inhibitory concentration (IC50) on ALK5 was 49.8 nM.
The same measure, in the same setting: the figure for `Cc1cccc(-c2[nH]c(CN(C)c3cccc(C#N)c3)nc2-c2ccc3ncnn3c2)n1` [Example 141] is 118 nM.
Regarding `Cc1cccc(-c2[nH]c(CN(C)c3cccc(C(N)=O)c3)nc2-c2ccc3ncnn3c2)n1` [Example 142], the IC50 on ALK5 is 153 nM.
Still for that read-out and setting: the result for `Cc1cccc(-c2[nH]c(Cc3ccccc3)nc2-c2ccc3ncnn3c2)n1` [Example 143, 6-(2-benzyl-5-(6-methylpyridin-2-yl)-1H-imidazol-4-yl)-[1,2,4]triazolo[1,5-a]pyridine] reads 19.8 nM.
With `Cc1cccc(-c2[nH]c(Cc3ccccc3F)nc2-c2ccc3ncnn3c2)n1` [Example 144, 6-(2-(2-fluorobenzyl)-5-(6-methylpyridin-2-yl)-1H-imidazol-4-yl)-[1,2,4]triazolo[1,5-a]pyridine], the IC50 at ALK5 is 25.1 nM.
Consider `Cc1cccc(-c2[nH]c(Cc3cccc(C#N)c3)nc2-c2ccc3ncnn3c2)n1` [Example 145, 3-((4-([1,2,4]triazolo[1,5-a]pyridin-6-yl)-5-(6-methylpyridin-2-yl)-1H-imidazol-2-yl)methyl)benzonitrile], for which the IC50 on ALK5 stood at 12.4 nM.
On the same count and under the same terms, the figure for `Cc1cccc(-c2[nH]c(Cc3cccc(C(N)=O)c3)nc2-c2ccc3ncnn3c2)n1` [Example 147, 3-((4-([1,2,4]triazolo[1,5-a]pyridin-6-yl)-5-(6-methylpyridin-2-yl)-1H-imidazol-2-yl)methyl)benzamide] is 40 nM.
On the same count and under the same terms, the figure for `Cc1cccc(-c2[nH]c(COc3ccccc3)nc2-c2ccc3ncnn3c2)n1` [Example 148, 6-(5-(6-methylpyridin-2-yl)-2-(phenoxymethyl)-1H-imidazol-4-yl)-[1,2,4]triazolo[1,5-a]pyridine] is 13.1 nM; for `Cc1cccc(-c2[nH]c(COc3ccccc3F)nc2-c2ccc3ncnn3c2)n1` [Example 149, 6-(2-((2-fluorophenoxy)methyl)-5-(6-methylpyridin-2-yl)-1H-imidazol-4-yl)-[1,2,4]triazolo[1,5-a]pyridine] it is 25.4 nM; for `Cc1cccc(-c2[nH]c(COc3cccc(C#N)c3)nc2-c2ccc3ncnn3c2)n1` [Example 150, 3-((4-([1,2,4]triazolo[1,5-a]pyridin-6-yl)-5-(6-methylpyridin-2-yl)-1H-imidazol-2-yl)methoxy)benzonitrile] it is 23.9 nM.
In the case of `Cc1cccc(-c2[nH]c(COc3cccc(C(N)=O)c3)nc2-c2ccc3ncnn3c2)n1` [Example 151, 3-((4-([1,2,4]triazolo[1,5-a]pyridin-6-yl)-5-(6-methylpyridin-2-yl)-1H-imidazol-2-yl)methoxy)benzamide], at ALK5, the IC50 worked out at 22.5 nM.
Regarding `Cc1cccc(-c2[nH]c(CSc3ccccc3)nc2-c2ccc3ncnn3c2)n1` [Example 152, 6-(5-(6-methylpyridin-2-yl)-2-(phenylthiomethyl)-1H-imidazol-4-yl)-[1,2,4]triazolo[1,5-a]pyridine], the 50% inhibitory concentration (IC50) on ALK5 worked out at 20.7 nM.
